Data on one molecule can be found in patent US10555528B1, “Herbicidal composition and method for controlling weeds” (SUMITOMO CHEMICAL COMPANY, LIMITED, priority 2019, dated 2020).

SMILES strings stand for the structures.

For one data set, the system named is soybean plant. Put plainly: Spot-on crop injury test on soybean leaf. Format: in vivo. The following applies: soybean at 2 trifoliate leaf stage, 2 micro liter droplet spotted on 2nd trifoliate leaf; glufosinate-ammonium 400,000 ng/plant, PPO inhibitor none or 0.2 ng/plant (weight ratio 1/2,000,000); visually estimated 6 days after treatment, % of total area of treated leaf. The text has this:
One droplet having 2 micro liter of a commercial formulation of glufosinate-ammonium (manufactured by Bayer Cropscience KK under the trade name of Basta) having 200,000 ppm (200 g/L) of glufosinate-ammonium was spotted on the 2nd trifoliate leaf of a soybean plant at the stage of 2 trifoliate leaf.
6 days after the spot-on treatments, the injured area of the treated leaf was visually estimated as a percentage on the total area of the treated leaf.

Another data set relates to corn plant. Put plainly: Spot-on crop injury test on corn leaf. It counts as in vivo. The following applies: corn at 2.5-leaf stage, 2 micro liter droplet spotted on 2nd leaf; glufosinate-ammonium 40,000 ng/plant, PPO inhibitor none or 20 ng/plant (weight ratio 1/2,000); visually estimated 3 days after treatment, % of total area of treated leaf. The text has this:
3 days after the spot-on treatments, the injured area of the treated leaf was visually estimated as a percentage on the total area of the treated leaf.

On to `CP(=O)(O)CCC(N)C(=O)O` (centres unmarked) [Glufosinate-ammonium, glufosinate-ammonium], for which the Injured leaf area in the data set with soybean plant is 70%; with corn plant, 60%.
